Data reported in patent US8952024B2, “Herbicidal pyrimidone derivatives” (E I du Pont de Nemours and Company, priority 2009, dated 2015).
Read-outs that look alike come from different tables or passages of the source.

Columns and labels:
Assay in all cases: Test B pre-/postemergence plant response
Type in all cases: in vivo
[1] = test system: Surinam grass (Brachiaria decumbens)
Summary of the method: (§1)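 Steps: sow seed in loam–sand soil and spray preemergence, or grow plants in peat-based medium to 1–4 leaves (2–18 cm) and spray postemergence; formulation is non-phytotoxic solvent plus surfactant; hold in greenhouse 13–15 days; score visually vs controls, 0 = no effect, 100 = complete control.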

[2] = test system: blackgrass (Alopecurus myosuroides); settings: for pest or weed control at 31 g/ha: 31 g ai/ha, scale 0 to 100 (0 no effect, 100 complete control); for pest or weed control at 62 g/ha: 62 g ai/ha
Summary of the method: as §1

[3] = test system: cocklebur (Xanthium strumarium)
Summary of the method: as §1

corn (Zea mays) = settings: for Corn plant response rating (crop injury, 0 = no effect, 100 = complete kill) at 31 g/ha: 31 g ai/ha, scale 0 to 100 (0 no effect, 100 complete control)
Summary of the method: as §1

[4] = test system: downy bromegrass (Bromus tectorum); settings: for pest or weed control at 31 g/ha: 31 g ai/ha, scale 0 to 100 (0 no effect, 100 complete control); for pest or weed control at 62 g/ha: 62 g ai/ha
Summary of the method: as §1

[5] = test system: giant foxtail (Setaria faberii); settings: for pest or weed control at 31 g/ha: 31 g ai/ha, scale 0 to 100 (0 no effect, 100 complete control); for pest or weed control at 62 g/ha: 62 g ai/ha
Summary of the method: as §1

[6] = test system: goosegrass (Eleusine indica); settings: for pest or weed control at 62 g/ha: 62 g ai/ha
Summary of the method: as §1

[7] = test system: green foxtail (Setaria viridis)
Summary of the method: as §1

[8] = Preemergence, 125 g ai/ha, 0 to 100 scale
[9] = Postemergence, 250 g ai/ha, scale 0 to 100

With `Cc1c(F)cccc1-n1c(-c2ccccc2)ncc(C(=O)C2=C(O)CCCC2=O)c1=O` [Compound 47, 3-(3-fluoro-2-methylphenyl)-5-[(2-hydroxy-6-oxo-1-cyclohexen-1-yl)carbonyl]-2-phenyl-4(3H)-pyrimidinone] the “Surinam Grass plant response rating” value [1, 8] was 100, the pest or weed control at 62 g/ha ([1]; Urochloa decumbens, post-emergence, Postemergence, 62 g ai/ha, scale 0 (no effect) to 100 (complete control), 13 to 15 days, read-out: Plant response rating, Surinam Grass) was 95% and the pest or weed control at 125 g/ha ([1]; Urochloa decumbens, post-emergence, Postemergence, 125 g ai/ha, visual rating after 13 to 15 days, scale 0 (no effect) to 100 (complete control)) was 98%. The pest or weed control at 250 g/ha ([1]; Urochloa decumbens, pre-emergence, 250 g ai/ha, Preemergence, 0 to 100 scale, read-out: Plant response rating, Surinam Grass) was 100%, the pest or weed control at 31 g/ha ([1]; Urochloa decumbens, pre-emergence, Preemergence, 31 g ai/ha, scale 0 to 100 (0 no effect, 100 complete control), read-out: Plant response rating, Surinam Grass) was 85% and the pest or weed control at 31 g/ha ([2]; Alopecurus myosuroides, post-emergence, 360 h, Postemergence, read-out: Plant response rating, Blackgrass) was 5%. For the same compound, the pest or weed control at 62 g/ha ([2]; Alopecurus myosuroides, post-emergence, 360 h, Postemergence, scale 0 (no effect) to 100 (complete control), 13 to 15 days, read-out: Plant response rating, Blackgrass) was 20%, the pest or weed control at 125 g/ha ([2]; Alopecurus myosuroides, post-emergence, 360 h, Postemergence, 125 g ai/ha, visual rating after 13 to 15 days, scale 0 (no effect) to 100 (complete control)) was 25% and the pest or weed control at 250 g/ha ([2]; Alopecurus myosuroides, pre-emergence, 360 h, 250 g ai/ha, Preemergence, 0 to 100 scale, read-out: Plant response rating, Blackgrass) was 5%. For the same compound, the pest or weed control at 31 g/ha ([2]; Alopecurus myosuroides, pre-emergence, 360 h, Preemergence, read-out: Plant response rating, Blackgrass) was 0%, the pest or weed control at 62 g/ha ([2]; Alopecurus myosuroides, pre-emergence, 360 h, Preemergence, scale 0 to 100, 0 no effect, 100 complete control, read-out: Plant response rating, Blackgrass) was 5% and the “Blackgrass plant response rating” value [2, 9] was 30. For the same compound, the “Blackgrass plant response rating” value [2, 8] was 5, the “Cocklebur plant response rating” value [3, 9] was 100 and the pest or weed control at 31 g/ha ([3]; Xanthium strumarium, post-emergence, Postemergence, 31 g ai/ha, scale 0 to 100 (0 no effect, 100 complete control), read-out: Plant response rating, Cocklebur) was 95%. For the same compound, the pest or weed control at 125 g/ha ([3]; Xanthium strumarium, post-emergence, Postemergence, 125 g ai/ha, visual rating after 13 to 15 days, scale 0 (no effect) to 100 (complete control)) was 95%, the pest or weed control at 62 g/ha ([3]; Xanthium strumarium, pre-emergence, Preemergence, 62 g ai/ha, scale 0 to 100, 0 no effect, 100 complete control, read-out: Plant response rating, Cocklebur) was 0% and the “Corn plant response rating” value (corn (Zea mays); [8]) was 0. For the same compound, the Corn plant response rating (crop injury, 0 = no effect, 100 = complete kill) at 31 g/ha (corn (Zea mays); Zea mays, post-emergence, Postemergence) was 65%, the Corn plant response rating (crop injury, 0 = no effect, 100 = complete kill) at 125 g/ha (corn (Zea mays); Zea mays, post-emergence, Postemergence, 125 g ai/ha, visual rating after 13 to 15 days, scale 0 (no effect) to 100 (complete control)) was 80% and the Corn plant response rating (crop injury, 0 = no effect, 100 = complete kill) at 250 g/ha (corn (Zea mays); Zea mays, pre-emergence, 250 g ai/ha, Preemergence, 0 to 100 scale) was 0%. It also gave a Corn plant response rating (crop injury, 0 = no effect, 100 = complete kill) at 31 g/ha (corn (Zea mays); Zea mays, pre-emergence, Preemergence) of 0%, a Corn plant response rating (crop injury, 0 = no effect, 100 = complete kill) at 62 g/ha (corn (Zea mays); Zea mays, pre-emergence, Preemergence, 62 g ai/ha, scale 0 to 100, 0 no effect, 100 complete control) of 0% and a pest or weed control at 31 g/ha ([4]; Bromus tectorum, post-emergence, Postemergence, read-out: Plant response rating, Bromegrass, Downy) of 35%. The pest or weed control at 62 g/ha ([4]; Bromus tectorum, post-emergence, Postemergence, scale 0 (no effect) to 100 (complete control), 13 to 15 days, read-out: Plant response rating, Bromegrass, Downy) was 40%, the pest or weed control at 125 g/ha ([4]; Bromus tectorum, post-emergence, Postemergence, 125 g ai/ha, visual rating after 13 to 15 days, scale 0 (no effect) to 100 (complete control)) was 50% and the pest or weed control at 250 g/ha ([4]; Bromus tectorum, pre-emergence, 250 g ai/ha, Preemergence, 0 to 100 scale, read-out: Plant response rating, Bromegrass, Downy) was 10%. For the same compound, the pest or weed control at 31 g/ha ([4]; Bromus tectorum, pre-emergence, Preemergence, read-out: Plant response rating, Bromegrass, Downy) was 0%, the pest or weed control at 62 g/ha ([4]; Bromus tectorum, pre-emergence, Preemergence, scale 0 to 100, 0 no effect, 100 complete control, read-out: Plant response rating, Bromegrass, Downy) was 5% and the “Bromegrass, Downy plant response rating” value [4, 9] was 55. For the same compound, the “Bromegrass, Downy plant response rating” value [4, 8] was 5, the “Foxtail, Giant plant response rating” value [5, 9] was 98 and the “Foxtail, Giant plant response rating” value [5, 8] was 85. The pest or weed control at 31 g/ha ([5]; Setaria faberi, post-emergence, Postemergence, read-out: Plant response rating, Foxtail, Giant) was 90%, the pest or weed control at 62 g/ha ([5]; Setaria faberi, post-emergence, Postemergence, scale 0 (no effect) to 100 (complete control), 13 to 15 days, read-out: Plant response rating, Foxtail, Giant) was 98% and the pest or weed control at 125 g/ha ([5]; Setaria faberi, post-emergence, Postemergence, 125 g ai/ha, visual rating after 13 to 15 days, scale 0 (no effect) to 100 (complete control)) was 98%. The pest or weed control at 250 g/ha ([5]; Setaria faberi, pre-emergence, 250 g ai/ha, Preemergence, 0 to 100 scale, read-out: Plant response rating, Foxtail, Giant) was 100%, the pest or weed control at 31 g/ha ([5]; Setaria faberi, pre-emergence, Preemergence, read-out: Plant response rating, Foxtail, Giant) was 45% and the pest or weed control at 62 g/ha ([5]; Setaria faberi, pre-emergence, Preemergence, scale 0 to 100, 0 no effect, 100 complete control, read-out: Plant response rating, Foxtail, Giant) was 70%. The pest or weed control at 62 g/ha ([6]; Eleusine indica, post-emergence, Postemergence, scale 0 (no effect) to 100 (complete control), 13 to 15 days, read-out: Plant response rating, Goosegrass) was 95%, the pest or weed control at 125 g/ha ([6]; Eleusine indica, post-emergence, Postemergence, 125 g ai/ha, visual rating after 13 to 15 days, scale 0 (no effect) to 100 (complete control)) was 95% and the pest or weed control at 250 g/ha ([6]; Eleusine indica, pre-emergence, 250 g ai/ha, Preemergence, 0 to 100 scale, read-out: Plant response rating, Goosegrass) was 100%. The pest or weed control at 31 g/ha ([6]; Eleusine indica, pre-emergence, Preemergence, 31 g ai/ha, scale 0 to 100 (0 no effect, 100 complete control), read-out: Plant response rating, Goosegrass) was 95%, the pest or weed control at 62 g/ha ([6]; Eleusine indica, pre-emergence, Preemergence, scale 0 to 100, 0 no effect, 100 complete control, read-out: Plant response rating, Goosegrass) was 100% and the “Goosegrass plant response rating” value [6, 9] was 98. For the same compound, the “Goosegrass plant response rating” value [6, 8] was 100, the “Foxtail, Green plant response rating” value [7, 9] was 95 and the “Foxtail, Green plant response rating” value [7, 8] was 98. The pest or weed control at 31 g/ha ([7]; Setaria viridis, post-emergence, Postemergence, 31 g ai/ha, scale 0 to 100 (0 no effect, 100 complete control), read-out: Plant response rating, Foxtail, Green) was 80%, the pest or weed control at 62 g/ha ([7]; Setaria viridis, post-emergence, Postemergence, 62 g ai/ha, scale 0 (no effect) to 100 (complete control), 13 to 15 days, read-out: Plant response rating, Foxtail, Green) was 90% and the pest or weed control at 125 g/ha ([7]; Setaria viridis, post-emergence, Postemergence, 125 g ai/ha, visual rating after 13 to 15 days, scale 0 (no effect) to 100 (complete control)) was 95%.
